Test results as given in patent US20050112573A1, “Method of detecting toxic substance” (priority 2001, published 2005).

Test system: yeast genes (level of expressed mRNA)
Test: DNA chip analysis of expressed mRNA of yeast genes after 2 h culture with a toxic chemical substance
Type: cell-based, Saccharomyces cerevisiae S288C
Conditions: for The level of expressed mRNA in the presence of chemical substance/ (ratio to absence of chemical substance): stress protein genes, DNA chip; for The level of expressed mRNA in the presence of chemical substance/ in its absence, gene YPR184W: yeast gene YPR184W
Experimental: Yeast (Saccharomyces cerevtisiae S288C (α SUC2mal mel gap2 CUP1)) were cultured at 25° C. on YPD medium (yeast extract 1%, polypepton 2%, glucose 2%). One of toxic chemical substances was added to the cell at logarithmic growth phase, and the cell was further cultured for two hours. Cell was cultured without any chemical substance in the same condition, and was used as control. Concentrations of the chemical substances were defined to inhibit the growth of the yeast but not lead to death.
After the completion of cultivation, the culture was centrifuged to collect the cells. To the cells, sodium acetate buffer (50 mM sodium acetate, 10 mM EDTA, 1% SDS) was added, and the mixture was shaken at 65° C. for five minutes, followed by returning to room temperature, and obtaining the supernatant, which procedure was repeated two times. To the supernatant, ½ amount of a solution of phenol/chloroform was added, and the mixture was centrifuged to give a supernatant, which was added with an equal amount of chloroform, and the mixture was centrifuged to give a supernatant. To the supernatant, an equal amount of isopropanol containing 0.3 M sodium acetate was added, and the mixture was allowed to stand at room temperature for 30 minutes, after which the mixture was centrifuged to give a sediment of the whole RNAs. Seventy % ethanol was added to the sediment, and the mixture was again centrifuged to give a sediment, which was then dried and dissolved in water. mRNA was isolated from the whole RNAs as followings. In view of the fact that a poly A chain is attached to the 3′ terminus of mRNA, a polynucleotide having a poly T structure which was immobilized on the surface of latex beads was used to trap the mRNA, and then the mRNA was washed and eluted with spine column (Oligotex-dT30<Super>mRNA Purification Kit, Takara). Reverse transcription of the mRNA was conducted with a reverse transcriptase (Super Script II Reverse Transcriptase; catalogue No. 18064-014, GibcoBRL) using fluorescence-labeled nucleotides to give cDNAs that were introduced with Cy3-dUTP or Cy5-dUTP during the reverse transcription.
The labeled cDNAs were dissolved in TE buffer (10 mM Tris-HCl/1 mM EDTA, pH8.0), and the solution was dropped on the DNA chip containing the whole genes of yeast (DNA Chip Research Inc. Japan) so that the cDNAs were hybridized on the DNA chip at 65° C. for over 12 hours. The fluoresces intensity of the DNA chip was read with a scanner, and the ratio relative to the fluorescence intensity resulting from the absence of chemical substance was estimated as the following, which is shown in Tables 1 to 9: [formula]
In the Tables, “Intensity” indicated in the rightmost column is a value of the level of expressed mRNA of each gene in control cells as divided by the average level of the expressions of the whole genes.

COc1cc(CNC(=O)CCCCC=CC(C)C)ccc1O [(12), 8-methyl-N-vanillyl-6-nonenamide]
1.1: The level of expressed mRNA in the presence of chemical substance/The level of expressed mRNA in the absence of chemical substance (yeast gene YNL093W) | The level of expressed mRNA in the presence of chemical substance/ (in its absence), gene YNL192W (yeast gene YNL192W, ratio of DNA chip fluorescence intensity to that without chemical substance) | The level of expressed mRNA in the presence of chemical substance/The level of expressed mRNA in the absence of chemical substance (yeast gene YOL013C) | The level of expressed mRNA in the presence of chemical substance/The level of expressed mRNA in the absence of chemical substance (yeast gene YOL164W) | The level of expressed mRNA in the presence of chemical substance/ (ratio to absence), gene YOR316C (yeast gene YOR316C, mitochondria-located protein genes, 2 h culture with chemical) | The level of expressed mRNA in the presence of chemical substance/The level of expressed mRNA in the absence of chemical substance (yeast gene YOR383C)
0.7: The level of expressed mRNA in the presence of chemical substance/The level of expressed mRNA in the absence of chemical substance (yeast gene YNL006W) | The level of expressed mRNA in the presence of chemical substance/The level of expressed mRNA in the absence of chemical substance (yeast gene YNL007C) | The level of expressed mRNA in the presence of chemical substance/ (ratio to absence), gene YNL073W (yeast gene YNL073W, mitochondria-located protein genes, 2 h culture with chemical) | The level of expressed mRNA in the presence of chemical substance/ (ratio to absence of chemical substance) (yeast gene YNR076W) | The level of expressed mRNA in the presence of chemical substance/ (ratio to absence of chemical substance) (yeast gene YOR008C) | The level of expressed mRNA in the presence of chemical substance/The level of expressed mRNA in the absence of chemical substance (yeast gene YOR132W) | The level of expressed mRNA in the presence of chemical substance/ (in its absence), gene YOR348C (yeast gene YOR348C, ratio of DNA chip fluorescence intensity to that without chemical substance) | The level of expressed mRNA in the presence of chemical substance/The level of expressed mRNA in the absence of chemical substance (yeast gene YPL089C) | The level of expressed mRNA in the presence of chemical substance/ (in its absence), gene YPL148C (yeast gene YPL148C, ratio of DNA chip fluorescence intensity to that without chemical substance)
0.8: The level of expressed mRNA in the presence of chemical substance/ (in its absence), gene YNL025C (yeast gene YNL025C, ratio of DNA chip fluorescence intensity to that without chemical substance) | The level of expressed mRNA in the presence of chemical substance/ (ratio to absence of chemical substance) (yeast gene YNL064C) | The level of expressed mRNA in the presence of chemical substance/The level of expressed mRNA in the absence of chemical substance (yeast gene YNR010W) | The level of expressed mRNA in the presence of chemical substance/ (in its absence), gene YOR180C (yeast gene YOR180C, ratio of DNA chip fluorescence intensity to that without chemical substance) | The level of expressed mRNA in the presence of chemical substance/The level of expressed mRNA in the absence of chemical substance (yeast gene YOR181W) | The level of expressed mRNA in the presence of chemical substance/The level of expressed mRNA in the absence of chemical substance (yeast gene YOR259C) | The level of expressed mRNA in the presence of chemical substance/ (ratio to absence of chemical substance) (yeast gene YPL059W) | The level of expressed mRNA in the presence of chemical substance/ (ratio to absence), gene YPL134C (yeast gene YPL134C, mitochondria-located protein genes, 2 h culture with chemical) | The level of expressed mRNA in the presence of chemical substance/ (ratio to absence of chemical substance) (yeast gene YPL140C) | The level of expressed mRNA in the presence of chemical substance/ (in its absence), gene YPR165W (yeast gene YPR165W, ratio of DNA chip fluorescence intensity to that without chemical substance)
0.6: The level of expressed mRNA in the presence of chemical substance/ (in its absence), gene YOL116W (yeast gene YOL116W, ratio of DNA chip fluorescence intensity to that without chemical substance) | The level of expressed mRNA in the presence of chemical substance/ (ratio to absence of chemical substance) (yeast gene YPR005C)
1.3: The level of expressed mRNA in the presence of chemical substance/ (ratio to absence of chemical substance) (yeast gene YOL161C) | The level of expressed mRNA in the presence of chemical substance/The level of expressed mRNA in the absence of chemical substance (yeast gene YOR157C)
0.5: The level of expressed mRNA in the presence of chemical substance/ (ratio to absence of chemical substance) (yeast gene YOR010C)
0.9: The level of expressed mRNA in the presence of chemical substance/The level of expressed mRNA in the absence of chemical substance (yeast gene YOR124C) | The level of expressed mRNA in the presence of chemical substance/ (in its absence), gene YOR251C (yeast gene YOR251C, ratio of DNA chip fluorescence intensity to that without chemical substance) | The level of expressed mRNA in the presence of chemical substance/The level of expressed mRNA in the absence of chemical substance (yeast gene YOR261C) | The level of expressed mRNA in the presence of chemical substance/The level of expressed mRNA in the absence of chemical substance (yeast gene YOR355W) | The level of expressed mRNA in the presence of chemical substance/ (in its absence), gene YOR363C (yeast gene YOR363C, ratio of DNA chip fluorescence intensity to that without chemical substance) | The level of expressed mRNA in the presence of chemical substance/ (ratio to absence), gene YPL040C (yeast gene YPL040C, mitochondria-located protein genes, 2 h culture with chemical) | The level of expressed mRNA in the presence of chemical substance/The level of expressed mRNA in the absence of chemical substance (yeast gene YPL109C) | The level of expressed mRNA in the presence of chemical substance/The level of expressed mRNA in the absence of chemical substance (yeast gene YPL149W) | The level of expressed mRNA in the presence of chemical substance/ (ratio to absence of chemical substance) (yeast gene YPL194W)
1.2: The level of expressed mRNA in the presence of chemical substance/The level of expressed mRNA in the absence of chemical substance (yeast gene YNR069C) | The level of expressed mRNA in the presence of chemical substance/ (ratio to absence), gene YOL096C (yeast gene YOL096C, mitochondria-located protein genes, 2 h culture with chemical) | The level of expressed mRNA in the presence of chemical substance/ (in its absence), gene YOL096C (yeast gene YOL096C, ratio of DNA chip fluorescence intensity to that without chemical substance) | The level of expressed mRNA in the presence of chemical substance/The level of expressed mRNA in the absence of chemical substance (yeast gene YOR036W) | The level of expressed mRNA in the presence of chemical substance/ (in its absence), gene YOR103C (yeast gene YOR103C, ratio of DNA chip fluorescence intensity to that without chemical substance) | The level of expressed mRNA in the presence of chemical substance/The level of expressed mRNA in the absence of chemical substance (yeast gene YPR103W)
1.0: The level of expressed mRNA in the presence of chemical substance/The level of expressed mRNA in the absence of chemical substance (yeast gene YMR314W) | The level of expressed mRNA in the presence of chemical substance/The level of expressed mRNA in the absence of chemical substance (yeast gene YNL333W) | The level of expressed mRNA in the presence of chemical substance/ (in its absence), gene YNR072W (yeast gene YNR072W, ratio of DNA chip fluorescence intensity to that without chemical substance) | The level of expressed mRNA in the presence of chemical substance/ (in its absence), gene YOL108C (yeast gene YOL108C, ratio of DNA chip fluorescence intensity to that without chemical substance) | The level of expressed mRNA in the presence of chemical substance/The level of expressed mRNA in the absence of chemical substance (yeast gene YPR108W)
0.4: The level of expressed mRNA in the presence of chemical substance/ (ratio to absence of chemical substance) (yeast gene YOR009W)
2.5: The level of expressed mRNA in the presence of chemical substance/The level of expressed mRNA in the absence of chemical substance (yeast gene YOR117W)
1.4: The level of expressed mRNA in the presence of chemical substance/The level of expressed mRNA in the absence of chemical substance (yeast gene YOR288C) | The level of expressed mRNA in the presence of chemical substance/ in its absence, gene YPR184W (energy system protein genes, 2 h culture with the chemical, ratio to control without chemical) | The level of expressed mRNA in the presence of chemical substance/ in its absence, gene YPR184W (ratio of DNA chip fluorescence intensity to that without chemical substance)
1.5: The level of expressed mRNA in the presence of chemical substance/The level of expressed mRNA in the absence of chemical substance (yeast gene YOR185C) | The level of expressed mRNA in the presence of chemical substance/The level of expressed mRNA in the absence of chemical substance (yeast gene YOR198C) | The level of expressed mRNA in the presence of chemical substance/The level of expressed mRNA in the absence of chemical substance (yeast gene YPL154C)
